Laboratory results reported in paper PMC12040169 (PLOS Biology, 2025).

Assay: in vitro
Settings: human, hela cells, % viability

Row | Structure (SMILES) | viability at 28.5 h, 10 µM
1 | CC(C)(C)C1CCC(OC(=O)CCC(=O)Nc2nccs2)CC1 (stereo not drawn) [CBK260890] | 96.9%
2 | Cc1ccccc1-c1cnc(N)c(-c2ccc(O)cc2)n1 [CBK115544] | 95%
3 | COc1ncccc1C(=O)Nc1ccc(C)nc1C [CBK200292] | 90.6%
4 | Cc1nonc1/N=N/N(CC(=O)N1CCOCC1)c1nonc1C [CBK262399] | 103%
5 | CCN1CCC(Oc2nccnc2OCc2cc(C)on2)CC1 [CBK082962T] | 94.7%
6 | C=CCC1c2cccc(C(=O)O)c2C(=O)N1c1cccc(OC)c1 (stereo not drawn) [CBK113160] | 96.7%
7 | O=C(O)CCC(=O)Nc1ccc(C(=O)N2CCCc3ccccc32)cc1 [CBK269118] | 114%
8 | CCCOc1ccc(O)cc1 [CBK122802] | 97.8%
9 | CCOc1ccc(-c2cn(S(=O)(=O)c3cccc4nsnc34)nc2N)cc1 [CBK267883] | 102%
10 | CSCCN1CCC(Oc2nccnc2OCCN2CCOCC2)CC1 [CBK082935] | 92.9%
11 | COCCn1c(CO)nnc1[C@H]1C[C@H](NC(=O)c2ccc(F)cc2F)C1 [CBK306665] | 102%
12 | Cc1noc(C)c1NC(=O)c1cnc2ccccc2n1 [CBK200220] | 98.1%
13 | O=C(Cc1ccccc1F)N1CCCC(c2cnccn2)C1 (stereo not drawn) [CBK284601] | 96.8%
14 | C=CCC1(CC=C)CCN1C(=O)c1cc2c([nH]c1=O)CCCCC2 [CBK282524] | 103%
15 | COc1cc(S(=O)(=O)NCCOc2ccc(C(=O)O)cc2)c(OC)cc1Cl [CBK299825] | 92.1%
16 | COc1cc(CNc2cncc(-c3cccs3)n2)cc(OC)c1OC [CBK065526] | 106%
17 | CCOc1ccc2ccccc2c1CNCCc1ccc(S(N)(=O)=O)cc1 [CBK268732C] | 88.7%
18 | CCc1cc(Br)ccc1S(=O)(=O)NCCOc1ccccc1 [CBK044882] | 88.4%
19 | COc1ccc2[nH]cc(CC(=O)NCc3ccc(-c4csnn4)cc3)c2c1 [CBK149313] | 82.7%
20 | Cc1cc(C(=O)N(C)CC2(C)COC2)nc2ccccc12 [CBK281956] | 90.2%
21 | CC(C)N1CCC[C@@H]2CN(C(=O)c3cccc(C(F)(F)F)c3)C[C@@H]21 [CBK285525] | 96%
22 | Cc1cc(C)c2nc(NC(=O)c3ccc(=O)n(CC(=O)N(C)c4ccccc4)c3)sc2c1 [CBK286025] | 91.5%
23 | CCOc1ccc(S(=O)(=O)N2CCN(Cc3cccc(F)c3C)CC2)c2cccnc12 [CBK062794] | 78.3%

Row | Structure (SMILES) | viability at 28.5 h, 10 µM
24 | CCNC(=O)N1CCc2c([nH]c3ccc(OC)cc23)C12CCN(CCOc1ccccc1)C2 (stereo not drawn) [CBK061690] | 93%
25 | CC(C(=O)N(CCC#N)Cc1cccnc1)n1cnc2ccccc21 (stereo not drawn) [CBK304127] | 92.5%
26 | CC(C)CCNC(=O)N(CCC#N)C1CCCCC1 [CBK156378] | 91.6%
27 | FC(F)(F)c1ccc(SCc2ccc(Cl)c(Cl)c2)nc1 [CBK103713] | 95.3%
28 | CCn1c(=O)n(CC(=O)N(C(C)C)C(C)C)c2cccnc21 [CBK283943] | 100%
29 | CC(C)(C)C(=O)N1CC[C@H]2NC(=O)N(c3ccc(F)cc3)C(=O)[C@H]21 [CBK289328] | 86.4%
30 | Cc1ccc(NC(=O)CCC(=O)N2CCC3(CC2)CC(=O)c2ccccc2O3)cc1 [CBK156524] | 94.1%
31 | Cc1cccc(CN2CC[C@@H]3[C@H](C2)[C@@H](c2ccsc2)CN3C(=O)c2ccccc2F)c1 [CBK285659] | 109%
32 | COc1cccc(OC)c1OCCN1CCC(C(=O)NC(c2ccccc2)c2ccccn2)CC1 (stereo not drawn) [CBK148419] | 96.3%
33 | Cc1ccc(C2(CN3CCN(Cc4cncn4C)CC3)CC2)cc1 [CBK283308] | 107%
34 | Cc1ccc(S(=O)(=O)Nc2ccnc(-c3ccc(CN4C(=O)CSC4=O)cc3)n2)cc1 [CBK067925] | 96.1%
35 | CCOc1ccsc1C(=O)N1CCC(Cc2ccccc2)CC1 [CBK200186] | 114%
36 | O=C(c1cc(F)cc(F)c1)N1CCC(c2cccnc2)CC1 [CBK283892] | 87.5%
37 | O=C(c1cc2ccccc2[nH]1)N1CCN(Cc2ccccc2)CC1 [CBK200172] | 118%
38 | O=C1CN(C(=O)Nc2ccc3[nH]ccc3c2)CCN1 [CBK155858] | 87%
39 | Cc1ccnc2nc(C(=O)OC(C)C(=O)NC3CC3)nn12 (stereo not drawn) [CBK304998] | 92.5%
40 | COc1ccc(C(=O)CSc2nnc(-c3ccccc3)[nH]2)cc1[N+](=O)[O-] [CBK263299] | 97.4%
41 | CC[C@H]1CN(C(=O)Nc2cccc(OC)c2)CC[C@H]1CC(=O)O [CBK288778] | 110%
42 | CNC(C)Cc1ccccc1Sc1ccccc1 (stereo not drawn) [CBK027167G] | 98%
43 | CC(C)(CN)CN(Cc1ccccc1Br)C(=O)NCc1ccc(F)cc1 [CBK002469C] | 92.9%
44 | N#Cc1nc(=O)[nH]cc1N [CBK021411] | 90.8%
45 | O=C(Nc1cccnc1)N1CCN(CCc2ccccc2)CC1 [CBK158937] | 95.4%
46 | O=C(COc1ccccc1[N+](=O)[O-])Nc1nc2c(s1)CCC2 [CBK296663] | 85.1%

Row | Structure (SMILES) | viability at 28.5 h, 10 µM
47 | O=C(CCCc1nc(-c2ccccc2Cl)no1)NCc1cccnc1 [CBK269516] | 77.8%
48 | Cc1ccc(-c2cc(C(=O)Nc3ccc(S(N)(=O)=O)cc3)c3ccc(Cl)c(C)c3n2)cc1 [CBK267745] | 111%
49 | O=c1c2ccccc2n2c(=O)[nH]nc2n1-c1ccccc1 [CBK288352] | 104%
50 | COC(=O)C(=O)N1CC[C@H]2NC(=O)N(c3ccc(C(C)C)cc3)C(=O)[C@H]21 [CBK289287] | 105%
51 | COCCN1CCn2c(nc3cc(NC(=O)c4cccc([N+](=O)[O-])c4)ccc32)C1 [CBK267965] | 98.9%
52 | COc1ccc(S(=O)(=O)N(CC(=O)Nc2cccnc2)c2ccc(F)cc2)cc1 [CBK268445] | 86.5%
53 | O=C(O)C1Cc2nc[nH]c2C(c2ccc(F)cc2)N1 (stereo not drawn) [CBK286970] | 86.1%
54 | COC(=O)c1ccccc1NC(=O)CSc1nc(C)cc(C)n1 [CBK263818] | 96.2%
55 | O=C1CCN(Cc2ccccc2)CCN1C(=O)c1cccs1 [CBK284828] | 88.8%
56 | CC(=O)Oc1cccc(CN2CCCN(S(=O)(=O)c3ccc(-c4ccccc4)cc3)CC2)c1 [CBK063113] | 94.1%
57 | Nc1cccc(-c2cn(C[C@H]3CC4CCN3C[C@@H]4C(=O)NC3CCCCC3)nn2)c1 (stereo partly drawn) [CBK289083] | 84.2%
58 | CCOC(=O)N1CCC(NS(=O)(=O)c2c(C)noc2C)CC1 [CBK045465] | 102%
59 | COc1ccc2ccccc2c1CNCCCN1CCOCC1 [CBK278209C] | 93.8%
60 | CC(C)c1cc2c(s1)NC(c1ccccc1)NC2=O (stereo not drawn) [CBK288209] | 92.9%
61 | Nc1nonc1-n1nnc(C(=O)N/N=C/c2nc3ccccc3[nH]2)c1-c1ccccc1 [CBK262815] | 93.8%
62 | O=C(c1ccco1)N1CCN(C2C3CCCC2CNC3)CC1 (stereo not drawn) [CBK284992] | 94.4%
63 | CCN1CCN(Cc2c[nH]c3ccccc23)CC1 [CBK261540] | 99.4%
64 | COCOc1ccc(-c2ncc(OCCN3CCOCC3)nc2N)cc1 [CBK145100] | 87.7%
65 | CCCOC1CCCN(C(=O)c2ccc(-c3ccc(Cl)cn3)cc2)C1 (stereo not drawn) [CBK306540] | 89.5%
66 | Cc1nc(CNC(=O)NC2CCCN(c3ccn(C)n3)C2=O)c(C)s1 (stereo not drawn) [CBK305926] | 95%
67 | O=C(CCc1nc2ccccc2c(=O)[nH]1)N1CCN(Cc2ccc(Cl)s2)CC1 [CBK296937] | 83.9%
68 | OCCn1nc(C2CCCC2)nc1CCc1c[nH]c2ccccc12 [CBK307509] | 85.1%
69 | Cc1nc2c(C(=O)NCC(F)(F)F)cnn2c(C)c1Cc1ccccc1 [CBK162208] | 94.8%

Row | Structure (SMILES) | viability at 28.5 h, 10 µM
70 | Nc1n[nH]c(SCC(=O)Nc2ccc(Br)cc2Cl)n1 [CBK267875] | 95.3%
71 | O[C@H]1CCC[C@@H]1NCc1ccc(Cl)c(Cl)c1 [CBK005217] | 87%
72 | Cc1c(Cl)c([N+](=O)[O-])nn1CCCC(=O)Nc1cc(Br)ccc1O [CBK268875] | 93.1%
73 | CC1CC(C)CN(C(=O)c2cc(S(=O)(=O)N3CCOCC3)ccc2Cl)C1 (stereo not drawn) [CBK305000] | 87%
74 | O=c1[nH]nc2c(SC3CCCCC3)nccn12 [CBK288471] | 69.4%
75 | Cc1ccc2nc(-c3ccccc3)cc(C(=O)NCCCn3ccnc3)c2c1 [CBK268526] | 96.1%
76 | O=C(O)/C=C/C(=O)Nc1ccccc1Br [CBK086488] | 106%
77 | COc1cccc(C(=O)NCCC(=O)N2CCc3sccc3C2)c1 [CBK305376] | 108%
78 | Cc1ccc([N+](=O)[O-])cc1S(=O)(=O)Nc1ccc(O)c(Sc2nc3ccccc3s2)c1 [CBK266936] | 97.6%
79 | C=C(C)Cn1c(SCC(C)C)nnc1-c1ccccc1Cl [CBK200078] | 92.4%
80 | CCCn1c(SCC(=O)N2CCN(C(=O)c3cccs3)CC2)n[nH]c1=O [CBK297109] | 97.6%
81 | CC(=O)Nc1cccc(-c2nc(-c3ccc(C#N)cc3)cnc2N)c1 [CBK113659] | 100%
82 | CC1CCc2n[nH]c(C(=O)NCCCc3ccccn3)c2C1 (stereo not drawn) [CBK283194] | 105%
83 | Cn1c(=O)n(CC(=O)NCc2cccs2)c2cccnc21 [CBK283907] | 90.3%
84 | CC(Cc1c[nH]c2ccccc12)NC(=O)CN (stereo not drawn) [CBK218213C] | 100%
85 | O=C(CCC(=O)c1ccc2c(c1)OCCO2)OCC(=O)c1ccc(Cl)c(Cl)c1 [CBK264825] | 87.5%
86 | Cc1ncsc1C(=O)N1CCCC(n2cnc3cc(F)ccc32)C1 (stereo not drawn) [CBK284470] | 91.2%
87 | COc1ccc(CCC(=O)c2cnc3sc4c(n23)CCCCC4)cc1 [CBK016849] | 109%
88 | O=C(O)c1ccc2c(c1)C(=O)N(c1ccc(/C=C/C(=O)c3ccccc3)cc1)C2=O [CBK261181] | 79.6%
89 | OCCCNC(=S)Nc1ccc(Cl)cc1Cl [CBK265264] | 96.6%
90 | Cc1nn(C)cc1CNC(=O)C1C2CCC(C2)C1C(=O)O (stereo not drawn) [CBK286875] | 89.3%
